# Laboratory results taken from the supplement of paper PMC11061612.
# Key:
# Test in all cases: combination Emax (second highest fraction inhibited in the dose matrix, 72 h); higher = more inhibition; extreme values may be limits of the assay
# [1] = system: KARPAS-620 (Plasma Cell Myeloma)
# Outline: (§1)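 Bliss excess equals the observed combination effect minus the expected value EA + EB − EA·EB, where EA and EB are the effects of each agent alone. Combination Emax is the second-highest inhibition within the matrix. Inhibition was scaled from CellTiter-Glo 2.0 luminescence, with 0 set by vehicle wells and 1 by blank wells, after 72 hours of two-drug dosing of cells plated in 1536-well plates.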
# [2] = system: SW756 (Cervical Carcinoma)
# Outline: as §1
# [3] = system: SW1990 (Pancreatic Carcinoma)
# Outline: as §1
# [4] = system: KARPAS-1106P (B-Cell Non-Hodgkin's Lymphoma)
# Outline: as §1
# [5] = system: MDA-MB-231 (Breast Carcinoma)
# Outline: as §1
# [6] = system: MDA-MB-157 (Breast Carcinoma)
# Outline: as §1
# [7] = system: CFPAC-1 (Pancreatic Carcinoma)
# Outline: as §1
# [8] = system: SK-N-FI (Neuroblastoma)
# Outline: as §1
# [9] = system: SNU-C5 (Colorectal Carcinoma)
# Outline: as §1
# [10] = system: SN12C (Kidney Carcinoma)
# Outline: as §1
# [11] = system: DOV13 (Ovarian Carcinoma)
# Outline: as §1
# [12] = system: HPAC (Pancreatic Carcinoma)
# Outline: as §1
# [13] = system: DSH1 (Bladder Carcinoma)
# Outline: as §1
# [14] = system: HCC2157 (Breast Carcinoma)
# Outline: as §1
# [15] = system: IGR-1 (Melanoma)
# Outline: as §1
# [16] = system: NCI-H1299 (Non-Small Cell Lung Carcinoma)
# Outline: as §1
# [17] = system: SW780 (Bladder Carcinoma)
# Outline: as §1
# [18] = system: IHH-4 (Thyroid Gland Carcinoma)
# Outline: as §1
# [19] = system: KM-H2 (Hodgkin's Lymphoma)
# Outline: as §1
# [20] = system: CAL-78 (Chondrosarcoma)
# Outline: as §1
Structure (SMILES),combination Emax [19],combination Emax [1],combination Emax [2],combination Emax [3],combination Emax [4],combination Emax [5],combination Emax [6],combination Emax [7],combination Emax [8],combination Emax [9],combination Emax [10],combination Emax [11],combination Emax [12],combination Emax [13],combination Emax [14],combination Emax [15],combination Emax [16],combination Emax [17],combination Emax [18],combination Emax [20]
"CC(=O)Nc1cccc(-n2c(=O)n(C3CC3)c(=O)c3c(Nc4ccc(I)cc4F)n(C)c(=O)c(C)c32)c1 [Trametinib] + Cc1nc(-c2cn3c(n2)-c2ccc(-c4cnn(C(C)(C)C(N)=O)c4)cc2OCC3)n(C(C)C)n1 [Taselisib] (first compound max 1 µM, 7x7, partner max 10 µM)",0.227,1,0.626,0.971,0.749,0.868,0.336,0.826,0.954,0.794,0.45,0.76,1,0.994,1,0.759,0.68,0.541,0.78,0.512
"CC1(C)CCC(CN2CCN(c3ccc(C(=O)NS(=O)(=O)c4ccc(NCC5CCOCC5)c([N+](=O)[O-])c4)c(Oc4cnc5[nH]ccc5c4)c3)CC2)=C(c2ccc(Cl)cc2)C1 [Venetoclax] + C1CN(CCC1(C(=O)N[C@@H](CCO)C2=CC=C(C=C2)Cl)N)C3=NC=NC4=C3C=CN4 [Capivasertib] (first compound max 1 µM, 7x7, partner max 3 µM)",0.153,1,0.195,0.576,0.492,0.184,0.535,0.305,0.302,0.318,0.206,0.353,0.148,0.416,0.903,0.193,0.171,0.163,0.248,0.263
"CC1(C)CCC(CN2CCN(c3ccc(C(=O)NS(=O)(=O)c4ccc(NCC5CCOCC5)c([N+](=O)[O-])c4)c(Oc4cnc5[nH]ccc5c4)c3)CC2)=C(c2ccc(Cl)cc2)C1 [Venetoclax] + C=CCn1c(=O)c2cnc(Nc3ccc(N4CCN(C)CC4)cc3)nc2n1-c1cccc(C(C)(C)O)n1 [AZD1775] (first compound max 1 µM, partner max 1 µM)",0.974,0.976,0.436,0.783,0.917,0.481,0.905,0.495,0.713,0.57,0.381,0.912,0.757,0.48,0.782,0.396,0.641,0.148,0.711,0.51
"CC1(C)CCC(CN2CCN(c3ccc(C(=O)NS(=O)(=O)c4ccc(NCC5CCOCC5)c([N+](=O)[O-])c4)c(Oc4cnc5[nH]ccc5c4)c3)CC2)=C(c2ccc(Cl)cc2)C1 [Venetoclax] + CCN(CCO)CCCOc1ccc2c(Nc3cc(CC(=O)Nc4cccc(F)c4)[nH]n3)ncnc2c1 [AZD2811] (first compound max 1 µM, 7x7, partner max 1 µM)",0.305,1,0.158,0.625,0.46,0.226,0.56,0.259,0.198,0.19,0.187,0.523,0.361,0.271,0.762,0.349,0.19,0.193,0.389,0.328
"CC1(C)CCC(CN2CCN(c3ccc(C(=O)NS(=O)(=O)c4ccc(NCC5CCOCC5)c([N+](=O)[O-])c4)c(Oc4cnc5[nH]ccc5c4)c3)CC2)=C(c2ccc(Cl)cc2)C1 [Venetoclax] + CN(C)CCCOc1ccc(-c2ccc3ncc4c(c3c2)n(C2CCOCC2)c(=O)n4C)cn1 [AZD0156] (first compound max 1 µM, 7x7, partner max 1 µM)",0.206,0.989,0.158,0.674,0.552,0.267,0.596,0.342,0.217,0.185,0.249,0.326,0.26,0.156,0.377,0.211,0.214,0.212,0.129,0.248
"CC1(C)CCC(CN2CCN(c3ccc(C(=O)NS(=O)(=O)c4ccc(NCC5CCOCC5)c([N+](=O)[O-])c4)c(Oc4cnc5[nH]ccc5c4)c3)CC2)=C(c2ccc(Cl)cc2)C1 [Venetoclax] + COc1cc(Nc2ncc3c(n2)-c2ccc(Cl)cc2C(c2c(F)cccc2OC)=NC3)ccc1C(=O)O [Alisertib] (first compound max 1 µM, 7x7, partner max 10 µM)",0.448,1,0.273,0.415,0.713,0.392,0.649,0.402,0.666,0.347,0.318,0.693,0.688,0.53,0.877,0.403,0.385,0.534,0.411,0.598
"CC1(C)CCC(CN2CCN(c3ccc(C(=O)NS(=O)(=O)c4ccc(NCC5CCOCC5)c([N+](=O)[O-])c4)c(Oc4cnc5[nH]ccc5c4)c3)CC2)=C(c2ccc(Cl)cc2)C1 [Venetoclax] + C[C@@H]1COCCN1C2=NC(=NC(=C2)C3(CC3)[S@](=N)(=O)C)C4=C5C=CNC5=NC=C4 [AZD6738] (first compound max 1 µM, 7x7, partner max 10 µM)",0.879,0.996,0.325,0.666,0.688,0.624,0.886,0.554,0.766,0.784,0.287,0.91,0.611,0.659,0.877,0.675,0.534,0.22,0.691,0.605

# Second part, led by results:
combination Emax [19],Structure (SMILES),combination Emax [1],combination Emax [2],combination Emax [3],combination Emax [4],combination Emax [5],combination Emax [6],combination Emax [7],combination Emax [8],combination Emax [9],combination Emax [10],combination Emax [11],combination Emax [12],combination Emax [13],combination Emax [14],combination Emax [15],combination Emax [16],combination Emax [17],combination Emax [18],combination Emax [20]
0.139,"CC1(C)CCC(CN2CCN(c3ccc(C(=O)NS(=O)(=O)c4ccc(NCC5CCOCC5)c([N+](=O)[O-])c4)c(Oc4cnc5[nH]ccc5c4)c3)CC2)=C(c2ccc(Cl)cc2)C1 [Venetoclax] + C[C@@H](Nc1cc(F)cc(F)c1)c1cc(C(=O)N(C)C)cc2c(=O)cc(N3CCOCC3)oc12 [AZD8186] (first compound max 1 µM, 7x7, partner max 3 µM)",1,0.117,0.452,0.796,0.137,0.546,0.255,0.243,0.166,0.174,0.306,0.211,0.282,0.919,0.0327,0.149,0.163,0.22,0.212
0.161,"CC1(C)CCC(CN2CCN(c3ccc(C(=O)NS(=O)(=O)c4ccc(NCC5CCOCC5)c([N+](=O)[O-])c4)c(Oc4cnc5[nH]ccc5c4)c3)CC2)=C(c2ccc(Cl)cc2)C1 [Venetoclax] + Cc1cc2ncnn2cc1Nc1ncc2c(n1)n(C1CCOCC1)c(=O)n2C [AZD7648] (first compound max 1 µM, 7x7, partner max 10 µM)",0.989,0.195,0.572,0.458,0.356,0.571,0.275,0.262,0.261,0.218,0.476,0.288,0.187,0.628,0.174,0.224,0.163,0.259,0.234
0.097,"CC1(C)CCC(CN2CCN(c3ccc(C(=O)NS(=O)(=O)c4ccc(NCC5CCOCC5)c([N+](=O)[O-])c4)c(Oc4cnc5[nH]ccc5c4)c3)CC2)=C(c2ccc(Cl)cc2)C1 [Venetoclax] + Cn1cnc2c(F)c(Nc3ccc(Br)cc3Cl)c(C(=O)NOCCO)cc21 [Selumetinib] (first compound max 1 µM, 7x7, partner max 3 µM)",1,0.225,0.49,0.476,0.38,0.546,0.275,0.471,0.289,0.206,0.157,0.559,0.341,0.278,0.301,0.202,0.227,0.539,0.146
